Source: patent publication EP0325571B1, “New amines, their use and preparation” (priority 1988, dated 1989)
Like-named read-outs stand apart in the source and are kept apart here.

What was measured:
isolated urinary bladder = assay: Anticholinergic activity on isolated urinary bladder (inhibition of carbachol-induced contraction of bladder strips); set-up: species or system guinea-pigs; conditions: 60 minutes incubation with antagonist
Text: a) Anticholinergic activity on isolated urinary bladder
Male guinea-pigs, weighing 250-350 g, were killed by a blow on the head and exsanguinated. The urinary bladders were quickly removed and placed in Na^+-Krebs, in which they were kept throughout the dissection procedure. The bladders were dissected free from adherent fat and connective tissue before they were cut open by an incision on each side from the base towards apex. The mucosa was carefully removed with a pair of scissors. Four strips, approximately 3-5 mm long were prepared by cutting in a parallel direction to the longitudinal muscle fibres, on each half of the bladder.
The bladder strips were immediately mounted vertically in 5 ml organ baths containing Na^+-Krebs solution aerated with carbogene gas to maintain the pH at about 7.4. The temperature, 37°C, was thermostatically controlled by a Lauda MS3 thermostatic circulator. The preparations were suspended between two hooks, one of which was connected to a Grass Instruments FT03 force transducer. The isomeric tension of the preparations was recorded by a Grass polygraph model 79D. The resting tension was applied to approximately 5 mN. The strips were allowed to stabilize for at least 45 minutes. During this period the resting tension was adjusted to 5 mN and the preparations were repeatedly washed.
In the preliminary experiments concentration - effect curves for carbachol (carbamylcholin chloride) were studied, in order to determine a suitable agonist concentration for inhibition studies with antagonist. The carbachol concentration chosen, 3 x 10^-6M, produced a submaximal contractant response (70%). In the inhibition studies, the strips were contracted with carbachol (3 x 10^-6M) every 15 minutes. The strips were washed three times after every agonist addition. This procedure was repeated until a reproducible contractant response was observed. A variation of about 10% for three subsequent contractions was accepted as reproducible.
Initially each antagonist was tested in a concentration of 10-t1M, on. two bladder-strips from different guinea-pigs. When a reproducible response with 3 × 10^-6M carbachol was obtained, the strips were incubated with the antagonist for 15 minutes before the next carbachol was added. If the antagonist produced more than 50% inhibition of the response to carbachol, a complete concentration-inhibition curve was also made. In the complete inhibition curves, the strips were then incubated for 60 minutes with a fixed concentration of the antagonist before the next addition of carbachol. The effect of the antagonists was calculated as per cent inhibition of the mean of the initial agonist-induced contractions. To generate concentration-inhibition curves the antagonists were studied in 6-8 concentrations and for each concentration a fresh preparation was used, i.e. the strips were only exposed to the antagonist once before they were discarded.

portal vein [1] = assay: Noradrenaline antagonism on isolated portal vein; set-up: species or system rat; conditions: 10 min
Text: (§1) b) Antagonistic effect to noradrenaline and calcium on the portal vein
(§2) Preparation of isolated portal vein from rat
(§3) Animals : Albino, male rats, weighing about 200 g.
(§4) The rat is killed by a blow on the neck and decapitated. The abdomen is opened, the vein is dissected free from fat, cut open longitudinally and mounted in an organ bath. Changes in isometric tension is registered by a force displacement transducer, connected to an amplifier and a writing oscillograph.
Noradrenaline - antagonism on portal vein
Doses: Noradrenaline 3 x 10-^7 M
The chosen doses give about 70% of maximal response. The agonist is added to the bath at 10-minutes intervals. When reproducible contractions are obtained a fixed concentration of the test substance is added to the bath. After an incubation period of 10 minutes noradrenaline is added. The next concentration of the test substance is added when the original response of the agonist is obtained.
The antagonistic effect of the substance is calculated as per cent inhibition of the mean response by three preceding doses of the agonist.

portal vein [2] = assay: Ca-antagonistic effect on isolated portal vein (spontaneous myogenic activity); set-up: species or system rat; conditions: 10 mM K^+-solution added, cumulative doses
Text: as §1, §2, §3, §4
Ca - antagonistic effect on portal vein
10 mM K^+-solution is added to the Krebs buffer to stabilize the spontaneous myogenic activity of the vein. The amplitude of the muscle contractions is measued. The test substance is added to the bath in cumulative doses until total inhibition is obtained.

[3] = Acute toxicity in mice, i.v. bolus; format: in vivo; conditions: mouse, in vivo, iv; LD50-interval: between highest dose where 4 mice survived and lowest dose where 4 mice died within 5 minutes after i.v. bolus
Procedure: (§5) d) Acute toxicity in mice
(§6) The antagonists to be tested were dissolved in 0.9% NaCI. If they were not soluble in 0.9% NaCI they were dissolved in double distilled water. The solutions were prepared on the day of the experiment.
(§7) White male mice, 25 g, were placed in a mouse holder. The tested compounds were given as i.v. bolus doses in one of the four tail-veins, with a volume of 0.01 ml/g mouse. Each substance concentration was given to a group of four mice. 4-5 different concentrations of the antagonists were made and tested.
(§8) LDso-interval : The LD50-interval was between the highest dose where 4 mice survived and the lowest dose where 4 mice died within 5 minutes after an i.v. bolus dose.

mice = assay: Acute toxicity in mice, i.v. bolus; format: in vivo; conditions: lowest dose where 4 mice of 4 tested died within 5 minutes after i.v. bolus
Procedure: as §5, §6, §7, §8

conscious rat = assay: Effect on heart rate in conscious rat (ECG); format: in vivo; conditions: i.v. injection
Text: e) Effect on heart rate in conscious rat
The animal is slightly anaestetized by ether and an infusion cannula is inserted into a tail vein. While still asleep the rat is placed in a simple device, made of a coarse, somewhat elastic net fixing the rat in a constant position. Electrodes are attached to the extremities and connected to an ECG-pulse pre-amplifier and a Grass polygraph. By recording the ECG, the heart rate can then be determined.
Before any substance is given the animal has regained consciousness and the heart rate has been constant for at least 15 minutes.
The substance is injected, i.v. in the infusion cannula and flushed with physiological saline.
ECG is recorded 0.25, 0.5, 1, 2, 3 and 5 minutes after completed injection and then every 5 minutes until the original heart rate is obtained.

[4] = Cavia porcellus, 1 h, guinea-pig bladder strips contracted with carbachol 3 x 10^-6M, read-out: Antichol. effect IC50
[5] = rat portal vein, noradrenaline 3 x 10-^7 M, 10 minutes incubation, read-out: Anti-N.A. effect IC50
[6] = rat portal vein, read-out: Anti-Ca effect IC50
[7] = read-out: Antichol. effect IC50, guinea-pig bladder strips contracted with carbachol 3 x 10^-6M
[8] = Cavia porcellus, 1 h, read-out: Antichol. effect IC50 (M), guinea-pig bladder strips contracted with carbachol 3 x 10^-6M
[9] = Rattus norvegicus, read-out: Anti-N.A. effect IC50 (M)
[10] = Rattus norvegicus, read-out: Anti-Ca effect IC50 (M), rat portal vein

Row | SMILES | IC50 (isolated urinary bladder; [4]) [M] | IC50 (portal vein [1]; [5]) [M] | IC50 (portal vein [2]; [6]) [M] | LD50 at 5 min [3] [mg/kg] | Lethal dose (mice) [mg/kg] | also measured
1 | CC(C)N(CCC(c1ccccc1)c1ccccc1O)C(C)C (racemic) [Compound 1, N,N-Diisopropyl-3-(2-hydroxyphenyl)-3-phenylpropylamine] | 1.8e-08 | 1e-05 | 1.5e-05 | 10 to 20 | 20 | Effect on heart rate threshold dose (conscious rat): 1 to 3 mg/kg
2 | Cc1ccc(O)c(C(CCN(C(C)C)C(C)C)c2ccccc2)c1 (single isomer, unassigned) [Compound 4b, (-)-N,N-Diisopropyl-3-(2-hydroxy-5-methylphenyl)-3-phenylpropylamine hydrogen D(-)-tartrate] | – | – | – | – | – | IC50 (isolated urinary bladder; [7]): 1.3e-06 M; IC50 (portal vein [2]; read-out: Anti-Ca effect IC50, rat portal vein): 6e-06 M
3 | COc1ccccc1C(CCN1C(C)(C)CCCC1(C)C)c1ccccc1 (stereo not drawn) [Compound 10] | 6.2e-08 | 4e-06 | 7e-06 | – | – | –
4 | CN(CCC(c1ccccc1)c1ccccc1O)C(C)(C)C (stereo not drawn) [Compound 9] | 1.6e-08 | 5e-05 | 2.5e-05 | – | 20 | –
5 | CC(C)N(CCC(c1ccccc1)c1ccccc1O)C(C)C (single isomer, unassigned; (+)) [Compound 1a, (+)-N,N-Diisopropyl-3-(2-hydroxyphenyl)-3-phenylpropylamine] | 1.8e-08 | – | – | – | – | –
6 | CC(C)N(CCC(c1ccccc1)c1ccccc1O)C(C)C (single isomer, unassigned; (-)) [Compound 1b, (-)-N,N-diisopropyl-3-(2-hydroxyphenyl)-3-phenylpropylamine] | – | – | – | – | – | IC50 (isolated urinary bladder; guinea-pig bladder strips contracted with carbachol 3 x 10^-6M, read-out: Antichol. effect IC50): 1.4e-08 M
7 | CN(CCC(c1ccccc1)c1cc(O)ccc1O)C(C)(C)C (stereo not drawn) [Compound 8] | 3.1e-08 | 5e-05 | > 5e-05 | > 6 | >6 | –
8 | CC(C)N(CCC(c1ccccc1O)c1ccccc1O)C(C)C [Compound 13] | – | – | – | 5 to 10 | 10 | IC50 (isolated urinary bladder; [8]): 9e-09 M; IC50 (portal vein [1]; [9]): 3e-05 M; IC50 (portal vein [2]; [10]): 1.5e-05 M
9 | Cc1ccc(O)c(C(CCN(C(C)C)C(C)C)c2ccccc2)c1 (stereo not drawn) [Compound 4, N,N-Diisopropyl-3-(2-hydroxy-5-methylphenyl)-3-phenylpropylamine] | – | – | – | 30 to 40 | – | IC50 (isolated urinary bladder; [7]): 1.5e-08 M; IC50 (portal vein [1]; [9]): 5.5e-06 M; IC50 (portal vein [2]; [10]): 6e-06 M
10 | COc1ccccc1C(CCN(C(C)C)C(C)C)c1ccccc1 (stereo not drawn) [Compound 3] | – | – | – | 3 to 10 | 10 | IC50 (isolated urinary bladder; [8]): 2.4e-07 M; IC50 (portal vein [1]; [9]): 3.6e-06 M; IC50 (portal vein [2]; [10]): > 0.0001 M
11 | CC(CC(c1ccccc1)c1ccccc1)NC(C)(C)C (stereo not drawn) [Terodiline, terodiline, reference compound] | 5.2e-07 | 2.4e-06 | 1e-05 | 15 to 20 | 20 | Effect on heart rate threshold dose (conscious rat): 1 to 3 mg/kg
12 | CC(C)N(CCC(c1ccccc1)c1cc(O)ccc1O)C(C)C (stereo not drawn) [Compound 7] | 1.9e-08 | 5e-05 | 6.5e-05 | 30 to 50 | 50 | –
13 | Cc1ccc(O)c(C(CCN(C(C)C)C(C)C)c2ccccc2)c1.O=C(O)C(O)C(O)C(=O)O (single isomer, unassigned; (+)) [Compound 4a, (+)-N,N-Diisopropyl-3-(2-hydroxy-5-methylphenyl)-3-phenylpropylamine hydrogen tartrate] | – | – | – | 10 to 20 | – | IC50 (isolated urinary bladder; read-out: Antichol. effect IC50, guinea-pig bladder strips contracted with carbachol 3 x 10^-6M, tartrate): 1.3e-08 M; IC50 (portal vein [2]; read-out: Anti-Ca effect IC50, rat portal vein, tartrate): 6.5e-06 M
14 | COc1ccccc1C(CCN(C)C(C)(C)C)c1ccccc1 (stereo not drawn) [Compound 2] | 1.5e-07 | 3.5e-06 | 9e-06 | 10 to 20 | 20 | –
15 | COc1ccccc1C(CCN(C)C)c1ccccc1 (stereo not drawn) [GB-A-1.169.944, N,N-dimethyl-3-(2-methoxyphenyl)-3-phenylpropylamine, reference compound] | 1.2e-06 | 4.4e-06 | 2.1e-05 | 10 to 15 | 15 | –
16 | CN(CCC(c1ccccc1O)c1ccccc1O)C(C)(C)C [Compound 5] | 4.9e-09 | 3.8e-05 | 3e-05 | 30 to 45 | 45 | Effect on heart rate threshold dose (conscious rat): 1 to 3 mg/kg
